These results are taken from patent US7049461B1, “Treatment of leukemia” (University of Central Florida, priority 2001, dated 2006).

The subject of data set [1] is human leukemia cancer cells (ATCC JURK). Briefly: Cytotoxicity assay: growth inhibition of Jurkat cells (MTS/PMS). Format: cell-based. The settings on record: approximately 48 hours, test concentration not given. Here is the method:
The activity against leukemia cancer cells of the compounds (as earlier reported) was realized by the following procedure which determines the inhibitory effect of test samples on the growth of human leukemia cancer cells (ATCC JURK). The Jurkat cells are grown in RPMI 1640 media+10% Fetal bovine serum+1% Antibiotic/Antimycotic+1% of HEPES Buffer (1M)+1% Sodium Purivate (100 mM)+2.5% D-(+) Glucose Solution for approximately 48 hours at 37° C./5% CO2 […] compound.
Growth/Non-Growth of the cells (e.g., cell density) is determined using Promega's MTS/PMS assay system. MTS (3-(4,5-dimethylthiazol-2-yl)-5-(3-carboxymethoxyphenyl)-2-(4-sulfophenyl)-2H-tetrazolium, inner salt) is an aqueous compound that is reduced to soluble formazan by the presence of NADH formed by dehydrogenases present within the Jurkat cells. The absorbance of the formazan can be measured at 490 nm and is directly proportional to the number of living cells present in the culture. PMS (Phenazine Methosulfate) is added an electron coupling reagent and greatly increases the rate of reduction. […]
In order to establish the accuracy of this assay a Positive Control consisting of 50 μM Methotrexate should […] the net absorbance to less than 90% of the Negative Control (Jurkat cells are somewhat resistant to methotrexate) is utilized.

The nature of data set [2]: Solubility in organic solvents. Format: physicochemical.
Data set [3] can be described thus: Stability in solutions. To be noted: solution heated or stored for a long time; forms OF-12. The data set is classed as physicochemical.
Data set [4] deals with mice. The settings on record: cited from earlier work.

Take `CCOc1ccc(C(Cl)=CC(=NN=C2c3ccccc3-c3ccccc32)C(=O)OC)cc1` [3F-19, 4-Chloro-4-(4-ethoxy-phenyl)-2-(fluoren-9-ylidene-hydrazono)-but-3-enoic acid methyl ester]: the “percent activity against human leukemia” value in data set [1] is reported as 100%. With `CCOc1ccc(C(=O)CC(O)(NN=C2c3ccccc3-c3ccccc32)C(=O)OC)cc1` (stereo not shown) [OF-13, 4-(4-Ethoxy-phenyl)-2-(N′-fluoren-9-ylidene-hydrazino)-2-hydroxy-4-oxo-butyric acid methyl ester], in data set [1], the “percent activity against human leukemia” value came out at 97%. Also, the Solubility result is recorded as “highly soluble” in data set [2] (in DMSO, DMFA, dichloroethane, acetonitrile) and “insoluble” in data set [2] (in hexane). The Stability in solutions result in data set [3] was “not stable in solutions and decomposes quickly”. `Nc1ccn([C@@H]2O[C@H](CO)[C@@H](O)[C@@H]2O)c(=O)n1` [cytarabine]: in data set [4], the “toxicity in mice LD50” value is 826 mg/kg. As for `COc1cccc2c1C(=O)c1c(O)c3c(c(O)c1C2=O)C[C@@](O)(C(C)=O)C[C@@H]3O[C@H]1C[C@H](N)[C@H](O)[C@H](C)O1` [daunorubicin], the “toxicity in mice LD50” value in data set [4] was 26 mg/kg.
